According to US20100047360A1, “Use Of Polyamines In The Treatment Of Psoriasis” (Bioforskining Pharma AS, priority 2006, published 2010):

Tested on: psoriasis
Experiment: Clinical study, efficacy of topical cream in psoriasis patients
Type: in vivo, human
Conditions: patient; previously used antipsoriasis drugs
From the text: The patient started to use a cream according to Example 1 two to four times daily. […] The patient stopped using the spermine cream after about six months.
A patient with psoriasis (knees, elbows and scalp) started to use a cream according to Example 1 daily.
A patient with psoriasis (scalp, auditory canal, hands, elbows, partly in the face and body (psoriasis grade medium on 15% of the body)).

CN(Cc1cnc2nc(N)nc(N)c2n1)c1ccc(C(=O)N[C@@H](CCC(=O)O)C(=O)O)cc1 [methotrexate]
effectiveness of previous treatment: only effective treatment
